Test system: SEM cells
Experiment: cell viability relative to DMSO control; higher = less cytotoxic
Conditions: 48 h
Summary of the method: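 Library compounds in DMSO were pin-dosed into 1536-well plates (5 μl) holding NOMO1 or SEM (500 cells/well) or P12-Ichikawa (1000 cells/well) leukemia cells, across an 11-point threefold series of 47 μM to 0.79 nM. Each cell line had been adapted for at least four passages in each medium. CellTiter-Glo One luminescence was read after 48 h at 37°C. Viability is the per-plate percentage relative to DMSO wells, with cell-free wells as background.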

[1] = HPLM + 10% dialyzed FBS, 0.000781 µM
[2] = HPLM + 10% dialyzed FBS, 0.00234 µM
[3] = HPLM + 10% dialyzed FBS, 0.00702 µM
[4] = HPLM + 10% dialyzed FBS, 0.0211 µM
[5] = HPLM + 10% dialyzed FBS, 0.0632 µM
[6] = HPLM + 10% dialyzed FBS, 0.19 µM
[7] = HPLM + 10% dialyzed FBS, 0.569 µM
[8] = HPLM + 10% dialyzed FBS, 1.71 µM
[9] = HPLM + 10% dialyzed FBS, 5.12 µM
[10] = HPLM + 10% dialyzed FBS, 15.4 µM
[11] = HPLM + 10% dialyzed FBS, 46.1 µM
[12] = RPMI 5 mM glucose + 10% FBS, 0.000781 µM
[13] = RPMI 5 mM glucose + 10% FBS, 0.00234 µM
[14] = RPMI 5 mM glucose + 10% FBS, 0.00702 µM
[15] = RPMI 5 mM glucose + 10% FBS, 0.0211 µM
[16] = RPMI 5 mM glucose + 10% FBS, 0.0632 µM
[17] = RPMI 5 mM glucose + 10% FBS, 0.19 µM
[18] = RPMI 5 mM glucose + 10% FBS, 0.569 µM
[19] = RPMI 5 mM glucose + 10% FBS, 1.71 µM
[20] = RPMI 5 mM glucose + 10% FBS, 5.12 µM
[21] = RPMI 5 mM glucose + 10% FBS, 15.4 µM
[22] = RPMI 5 mM glucose + 10% FBS, 46.1 µM
[23] = RPMI 5 mM glucose + 10% dialyzed FBS, 0.000781 µM
[24] = RPMI 5 mM glucose + 10% dialyzed FBS, 0.00234 µM
[25] = RPMI 5 mM glucose + 10% dialyzed FBS, 0.00702 µM
[26] = RPMI 5 mM glucose + 10% dialyzed FBS, 0.0211 µM
[27] = RPMI 5 mM glucose + 10% dialyzed FBS, 0.0632 µM
[28] = RPMI 5 mM glucose + 10% dialyzed FBS, 0.19 µM
[29] = RPMI 5 mM glucose + 10% dialyzed FBS, 0.569 µM
[30] = RPMI 5 mM glucose + 10% dialyzed FBS, 1.71 µM
[31] = RPMI 5 mM glucose + 10% dialyzed FBS, 5.12 µM
[32] = RPMI 5 mM glucose + 10% dialyzed FBS, 15.4 µM
[33] = RPMI 5 mM glucose + 10% dialyzed FBS, 46.1 µM

SMILES	cell viability [1] [%]	cell viability [2] [%]	cell viability [3] [%]	cell viability [4] [%]	cell viability [5] [%]	cell viability [6] [%]	cell viability [7] [%]	cell viability [8] [%]	cell viability [9] [%]	cell viability [10] [%]	cell viability [11] [%]	cell viability [12] [%]	cell viability [13] [%]	cell viability [14] [%]	cell viability [15] [%]	cell viability [16] [%]	cell viability [17] [%]	cell viability [18] [%]	cell viability [19] [%]	cell viability [20] [%]	cell viability [21] [%]	cell viability [22] [%]	cell viability [23] [%]	cell viability [24] [%]	cell viability [25] [%]	cell viability [26] [%]	cell viability [27] [%]	cell viability [28] [%]	cell viability [29] [%]	cell viability [30] [%]	cell viability [31] [%]	cell viability [32] [%]	cell viability [33] [%]
Cn1cc(-c2ccc3ncc(Cc4ccc5ncccc5c4)n3n2)cn1	93.2	108	103	98.8	101	112	94.3	99.5	89.9	72.8	71	113	117	122	109	131	122	115	107	123	74	79.4	96.2	103	102	101	112	109	111	106	98.8	71.2	67.3
CC1(C)CC(=O)c2c(C(F)(F)F)nn(-c3ccc(C(N)=O)c(NC4CCC(OC(=O)CN)CC4)c3)c2C1 (stereo not given)	106	104	113	112	114	73.2	35.7	20.2	17	17.3	17.8	108	99.1	105	120	112	73.3	37.3	23.9	18.4	15.3	16.1	94.8	95.2	100	89.2	89.5	63.3	34.5	20.5	17.3	14.3	14.7
COc1ccc([C@@H]2CNC(=O)C2)cc1OC1CCCC1	83.1	90.7	93.9	102	103	103	96.2	114	114	111	93.2	76.9	101	92.3	93.7	100	98.6	92	95.5	103	95.6	98	97.1	94.3	97.9	70.6	97.4	103	104	106	99.6	97.6	90.9
Nc1cccc(-c2cc3c(Oc4cccc(O)c4)ncnc3[nH]2)c1												70.7	122	132	143	145	123	132	121	88.8	62.3	9.75	69.1	123	132	125	131	116	133	121	80.4	56	13.4
CCOC(=O)c1ncn2c1CN(C)C(=O)c1cc(F)ccc1-2	78.9	104	87.2	93.3	92.9	94.3	97.2	90.7	79.8	84.6	52.9	94.6	111	112	92.5	105	98.6	98.8	93.6	67.5	57.1	46.8	99	107	109	113	116	131	117	87.3	75.6	79.6	43.9
Clc1ccc(COC(Cn2ccnc2)c2ccc(Cl)cc2Cl)cc1 (stereo not given)	72.9	82.3	89.9	97.2	83.6	84.7	80.8	88.9	92.5	87.9	80.5	116	110	121	114	119	102	119	107	113	107	82	76.8	78.8	113	85	92.2	88.7	111	94.2	101	79.7	74.5
Cc1nc2c([nH]1)-c1ccccc1N(C(=O)c1ccc(NC(=O)c3ccccc3-c3ccccc3)cc1)CC2	91.3	115	90.8	123	114	122	123	115	113	128	124	123	120	100	138	129	129	141	163	128	149	118	111	143	108	131	140	160	130	121	127	166	124
